According to publication PMC11091828 (Journal of medicinal chemistry, 2023):

Key:
[1] = molecular target: T1, hD3R (Homo sapiens, UniProt P35462); assay: BRET D3R-mediated GαoA G protein activation; assay type: cell-based; details: agonist mode; NA = No Activity at the highest tested concentration
[2] = molecular target: T2, mMOR (Mus musculus, UniProt P42866); assay: BRET Nb33 recruitment at MOR, HEK 293T cells; assay type: cell-based; details: read-out: MOR Nb33 recruitment Emax ± SEM
[3] = molecular target: hMOR (Homo sapiens, UniProt P35372); assay: hMOR radioligand binding, competition with [3H]-DAMGO, HEK293 membranes; details: for improved MOR affinity with respect to 2-THP unsubstituted analog: 122 vs 115, 121 vs 112
Sequence of hMOR (P35372 whole entry): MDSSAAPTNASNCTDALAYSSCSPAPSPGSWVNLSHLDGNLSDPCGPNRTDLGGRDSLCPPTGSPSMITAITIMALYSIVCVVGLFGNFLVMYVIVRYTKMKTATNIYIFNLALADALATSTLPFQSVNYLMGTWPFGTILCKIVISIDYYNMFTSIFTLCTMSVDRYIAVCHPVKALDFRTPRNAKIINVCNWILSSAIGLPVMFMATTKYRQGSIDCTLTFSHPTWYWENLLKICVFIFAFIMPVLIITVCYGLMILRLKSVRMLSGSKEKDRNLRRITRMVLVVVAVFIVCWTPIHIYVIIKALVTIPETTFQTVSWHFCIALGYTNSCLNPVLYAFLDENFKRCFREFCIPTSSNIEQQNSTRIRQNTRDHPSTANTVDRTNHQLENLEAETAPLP

[4] = molecular target: T2, mMOR; assay: BRET MOR-mediated Gαi2 G protein activation; assay type: cell-based; details: NA = No Activity at the highest tested concentration
[5] = molecular target: T1, hD3R; assay type: binding; details: from Ki values
[6] = molecular target: T2, mMOR; assay: BRET arrestin-3 recruitment at MOR with overexpressed GRK2, HEK 293T cells; assay type: cell-based; details: NA = No Activity at the highest tested concentration

T2 sequence (P42866 whole entry): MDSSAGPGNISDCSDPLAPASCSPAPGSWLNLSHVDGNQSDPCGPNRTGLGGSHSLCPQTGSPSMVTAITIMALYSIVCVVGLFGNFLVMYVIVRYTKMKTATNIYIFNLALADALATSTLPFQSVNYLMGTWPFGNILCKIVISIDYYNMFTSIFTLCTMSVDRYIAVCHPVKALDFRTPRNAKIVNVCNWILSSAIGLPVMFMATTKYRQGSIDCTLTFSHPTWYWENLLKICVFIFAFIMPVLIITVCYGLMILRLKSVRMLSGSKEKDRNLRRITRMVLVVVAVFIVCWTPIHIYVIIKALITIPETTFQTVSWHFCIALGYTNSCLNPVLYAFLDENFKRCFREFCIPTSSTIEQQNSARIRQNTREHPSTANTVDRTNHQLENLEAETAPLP
T1 sequence (P35462 whole entry): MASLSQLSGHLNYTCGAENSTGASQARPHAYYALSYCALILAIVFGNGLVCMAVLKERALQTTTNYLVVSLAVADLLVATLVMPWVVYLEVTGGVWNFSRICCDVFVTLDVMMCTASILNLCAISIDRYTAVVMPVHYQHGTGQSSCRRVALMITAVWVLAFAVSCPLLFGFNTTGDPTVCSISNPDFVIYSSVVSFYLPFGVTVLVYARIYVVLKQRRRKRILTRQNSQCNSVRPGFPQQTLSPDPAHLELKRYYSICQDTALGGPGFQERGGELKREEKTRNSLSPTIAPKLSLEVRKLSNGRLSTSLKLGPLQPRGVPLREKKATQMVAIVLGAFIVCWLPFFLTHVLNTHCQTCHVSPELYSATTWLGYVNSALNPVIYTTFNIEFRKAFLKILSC

With `CCc1cc(Cl)c(OC)c(N2CCN(C[C@@H]3C[C@@H](O)CN3CCC(C(=O)N(C)C)(c3ccccc3)c3ccccc3)CC2)c1` [compound 34, 4-((2S,4R)-2-((4-(3-Chloro-5-ethyl-2-methoxyphenyl)piperazin-1-yl)methyl)-4-hydroxypyrrolidin-1-yl)-N,N-dimethyl-2,2-diphenylbutanamide] the “D3R GoA activation pEC50 ± SEM” value [1] was 7.60 ± 0.99.

With `COc1ccccc1[C@@H]1C[C@H]1NCCC(C(=O)N(C)C)(c1ccccc1)c1ccccc1` (relative stereo) [compound 84, rel-trans-4-((2-(2-Methoxyphenyl)cyclopropyl)amino)-N,N-dimethyl-2,2-diphenylbutanamide] the Emax [2] was 31 ± 2.3%.

`CCCN(CCC(C(=O)N(C)C)(c1ccccc1)c1ccccc1)[C@@H]1C[C@H]1c1ccc(Cl)cc1` (relative stereo) [compound 80, rel-trans-4-((2-(4-Chlorophenyl)cyclopropyl)(propyl)amino)-N,N-dimethyl-2,2-diphenylbutanamide] showed an Emax [2] of 27.7 ± 4.9%.

In the case of `FC(F)(F)c1cccc(N2CCN(CCC3(c4ccccn4)CCOC4(CCCC4)C3)CC2)n1` (stereo not drawn) [compound 122, 1-(2-(9-(Pyridin-2-yl)-6-oxaspiro[4.5]decan-9-yl)ethyl)-4-(6-(trifluoromethyl)pyridin-2-yl)piperazine], the “improved MOR affinity with respect to 2-THP unsubstituted analog” value [3] is reported as over 10 fold.

In the case of `CN(C)C(=O)C(CCN1C[C@H](F)C[C@H]1C(=O)NCCCCN1CCN(c2cccc(C(F)(F)F)n2)CC1)(c1ccccc1)c1ccccc1` [compound 56, (2S,4R)-1-(4-(Dimethylamino)-4-oxo-3,3-diphenylbutyl)-4-fluoro-N-(4-(4-(6-(trifluoromethyl)pyridin-2-yl)piperazin-1-yl)butyl)pyrrolidine-2-carboxamide], the “MOR Gi2 activation pEC50 ± SEM” value [4] is reported as 5.94 ± 0.08.

Work on `CN(C)C(=O)C(CCN1C[C@H](O)CC1=CN1CCN(c2cccc(Cl)c2Cl)CC1)(c1ccccc1)c1ccccc1` (mixture of isomers) [compound 26, (R)-4-(2-((4-(2,3-Dichlorophenyl)piperazin-1-yl)methylene)-4-hydroxypyrrolidin-1-yl)-N,N-dimethyl-2,2-diphenylbutanamide] yielded a Ki [3] of 23.8 nM.

For `Clc1ccc([C@@H]2C[C@H]2NCCC2(c3ccccn3)CCOC3(CCCC3)C2)cc1` (relative stereo) [compound 121, rel-trans-2-(4-Chlorophenyl)-N-(2-(9-(pyridin-2-yl)-6-oxaspiro[4.5]decan-9-yl)ethyl)cyclopropan-1-amine], the “improved MOR affinity with respect to 2-THP unsubstituted analog” value [3] was over 10 fold, the “D3R selectivity over D2R” value [5] was 15 fold and the “MOR arr3 recruitment (+ GRK2) pEC50 ± SEM” value [6] was 6.58 ± 0.08.
